Reference: patent publication US9109155B2, “Heterocycle-functionalized luminogens exhibiting aggregation-induced emission” (THE HONG KONG UNIVERSITY OF SCIENCE AND TECHNOLOGY, priority 2013, dated 2015)
“Also recorded” adds a separate entry of the source.

Legend:
[1] = Metabolic viability of MCF-7 cancer cells after incubation with probe; assay type: cell-based; details: human, 5, 10 and 20 μM for 12, 24 and 48 h, read-out: cell viability
Description: This is indicative of the low cytotoxicity of the Ac-DEVD-PyTPE probe.

[2] = target: T1, caspase-7 (Homo sapiens, UniProt P55210); assay: Ac-DEVD-PyTPE fluorescence turn-on assay with caspase-7; assay type: biochemical; details: caspase-7 vs pepsin, trypsin, papain, lysozyme; protein 20 μg mL^−1; λex 405 nm, λem 610 nm
T1 sequence (P55210 24-198 limits assumed): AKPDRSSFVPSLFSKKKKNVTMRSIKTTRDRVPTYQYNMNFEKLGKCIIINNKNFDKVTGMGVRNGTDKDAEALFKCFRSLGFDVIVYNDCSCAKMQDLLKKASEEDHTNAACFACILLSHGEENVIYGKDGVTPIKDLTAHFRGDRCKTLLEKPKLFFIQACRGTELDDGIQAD
T1 sequence (P55210 207-303 limits assumed): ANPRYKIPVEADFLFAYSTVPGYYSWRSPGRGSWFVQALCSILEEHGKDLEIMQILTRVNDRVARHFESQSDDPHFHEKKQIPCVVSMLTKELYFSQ
Description: (§1) Inset: photographs taken under UV illumination. λex=405 nm; λem=610 nm.
(§2) As shown, caspase-3 and caspase-7 display respectively about 43- and 36-fold higher changes in (I−I0)/I0 than the other four enzymes.

[3] = target: T2, caspase-3 (Homo sapiens, UniProt P42574); assay: Ac-DEVD-PyTPE fluorescence turn-on assay with caspase-3 in PIPES buffer; assay type: biochemical
T2 sequence (P42574 29-175 limits assumed): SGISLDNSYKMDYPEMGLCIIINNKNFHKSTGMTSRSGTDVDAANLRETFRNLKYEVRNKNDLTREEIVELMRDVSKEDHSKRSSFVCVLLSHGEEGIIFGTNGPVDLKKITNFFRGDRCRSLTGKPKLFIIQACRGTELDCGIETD
T2 sequence (P42574 176-277 limits assumed): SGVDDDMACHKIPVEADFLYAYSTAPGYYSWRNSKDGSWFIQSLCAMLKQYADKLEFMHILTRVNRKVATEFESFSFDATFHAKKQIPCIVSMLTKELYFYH
Protocol: [caspase-3]=5 μg mL^−1, [Ac-DEVD-PyTPE]=10 μM.
as §1
Particles with an average diameter of 92 nm formed in addition to the increase of fluorescence in the solution (FIG. 43a). […] The caspase-3/7 catalyzed hydrolysis of Ac-DEVD-PyTPE is shown in the reaction scheme below.
In the absence of caspase-3, nearly no change in fluorescence is observed, confirming that Ac-DEVD-PyTPE is specifically recognized and cleaved by caspase-3.
as §2

[4] = tested on: subcutaneous C6 tumor; assay: In vivo and ex vivo fluorescence imaging of apoptosis in C6 tumor-bearing mice
Protocol: Only apoptotic tumors were clearly visualized.
Subcutaneous C6 tumor-bearing mice with and without intravenous injection of STS were imaged for 30 min using an IVIS spectrum imaging system. […] In contrast, the fluorescence signals from the tumor-bearing animals without treatment of STS and normal tissues are very weak. […] Additionally, the fluorescence changes in tumoral and normal tissues as a function of time for each experiment are shown in FIG. 50b. A 3-fold fluorescence enhancement of the apoptotic tumoral tissues relative to normal tissues is observed as early as 5 min after injection of Ac-DEVD-PyTPE, but only a slight fluorescence increase is observed over 15 min.
FIG. 50c show IVIS spectrum analysis of apoptotic and non-apoptotic tumors that were excised immediately after in vivo imaging.

[5] = tested on: caspase-3 activity in MCF-7 cells; assay: CLSM imaging of caspase-3 activity / apoptosis in MCF-7 cells; assay type: cell-based
Protocol: FIGS. 46a-46c show normal MCF-7 cells treated with Ac-DEVD-PyTPE (5 μM, 1% DMSO) for 2 h.
FIGS. 46d-46f show apoptotic MCF-7 cells treated with Ac-DEVD-PyTPE (5 μM, 1% DMSO) and caspase-3 antibody. STS (3 μM) was used to induce cell apoptosis. Red=probe fluorescence; Green=immunofluorescence signal generated from anti-caspase-3 primary antibody and a FITC labeled secondary antibody.
All images were acquired in the same way.
Additionally, apoptotic MCF-7 cells were treated with both Ac-DEVD-PyTPE and commercial Annexin V-Alexa Fluor.

[6] = tested on: HeLa cells; assay: Photobleaching under continuous laser excitation in stained HeLa cells; assay type: cell-based; details: continuous excitation 180 s, 0.6 mW; 405 nm for TPEPy-PF6, 588 nm for MitoTracker Red
[7] = tested on: MCF-7 cells; assay: In situ screening of apoptosis inducers in MCF-7 cells with Ac-DEVD-PyTPE; assay type: cell-based; details: 3 μM in DMSO, 2 h; compared with sodium ascorbate and cisplatin
Protocol: [Ac-DEVD-PyTPE]=3 μM. All images were acquired in the same way.
Three known apoptosis inducers, sodium ascorbate, cisplatin and STS, were used to treat MCF-7 cells. After the cells were incubated with Ac-DEVD-PyTPE for 2 h, each compound (3 μM in DMSO) was added into the chamber for an additional 2 h incubation. The apoptosis-inducing capabilities of these agents were evaluated by monitoring the cell fluorescence increase with a confocal microscopy.

[8] = tested on: C6 tumor; assay: In vivo screening of apoptosis inducing agents in C6 tumor-bearing mice; details: treated overnight, probe injected into tumor, 15 min; compared with DMSO, cisplatin, sodium ascorbate
Protocol: C6 tumor-bearing mice were treated with several compounds, namely DMSO, STS, cisplatin (CIS), and sodium ascorbate (Na asb), overnight, and Ac-DEVD-PyTPE was subsequently injected into the tumor directly. After 15 min incubation, the mice were imaged using an IVIS spectrum imaging system.

[9] = Solubility; details: for solubility in common organic solvents: THF, toluene, DCM, chloroform
[10] = Fluorescent sensing of Hg2+ in aqueous buffer and in solid film
Protocol: I0=the emission intensity at 640 nm in absence of Hg^2+. Inset: photographs of TPEBe-I in aqueous buffer with [Hg^2+] of 0 and 2.0 mM taken under 365 nm UV illumination. Solution concentration: 20 μM; excitation wavelength: 480 nm.
Black bars represent the addition of different metal ion (2 mM) to solution of the TPEBe-I. Red bars represent the subsequent addition of 2 mM Hg^2+ to the solution. λex=480 nm. λem=640 nm.
Accordingly, in one embodiment, the present subject matter relates to the use of Hg^2+ to bind to iodine ions in TPEBe-I in order to restore the emission of the cationic luminogen. […] In addition, the spectrum slightly red-shifted with increasing concentration of Hg^2+. […] When the concentration of Hg^2+ is 2.0 mM, the emission intensity of TPEBe-I is enhanced 80-fold. Moreover, the emission color also changes from dark into bright red under 365 nm UV illumination. Accordingly, another embodiment of the present subject matter relates to the use of TPEBe-I luminogens as an “off-on” sensor for Hg^2+ in aqueous solution.
In addition, the present subject matter relates to using the TPEBe-I luminogen as a fluorescent sensor for Hg^2+.
This is likely due to protons combining with iodine ions, leading to a faint increase in emission. In contrast, under basic conditions (pH≧7), TPEBe-I in the absence of Hg^2+ is weakly emissive due to the quenching effect of the iodine ions. […] The emission intensity decreases at a pH greater than 8, but is still higher than the emission intensity of TPEBe-I in the absence of Hg^2+. […] The lower emission intensity of TPEBe-I under more basic conditions is attributed to the formation of Hg(OH)2, thereby reducing the amount of free Hg^2+. In addition, the hydroxyl group (OH) in basic conditions can destroy the structure of TPEBe-I, resulting in inactivation of its sensing ability.
In another embodiment, a solid-state fluorescent probe for the detection of Hg^2+ was developed using the TPEBe-I luminogen. […] As shown, the spots of film polluted by the aqueous solution containing Hg^2+ changed to a red color with varying degrees while the untreated surrounding areas show the initial dark color. This illustrates that the solid-state film of TPEBe-I has a very sensitive response to Hg^2+ in a pure aqueous solution. Therefore, one embodiment of the present subject matter relates to the use a TPEBe-I solid-state fluorescent probe for detecting and tracking the amount of Hg^2+ in an aqueous solution. In one embodiment, the detection amount can reach 1 μM ([…]).

[11] = Fluorescent sensing of ATP in aqueous solution with 1% DMSO
Protocol: I0=PL intensity at 620 nm in absence of ATP. Inset in B: plot of (I−I0)/I0 value versus concentration of ATP from 0 to 20 μM.
I0=photoluminescence intensity at 620 nm in absence of nucleotide. Inset: Photographs of TPBBe-I in aqueous solution with 1% DMSO with various nucleotides (600 μM) taken under 365 nm UV illumination.
When the concentration of ATP is 600 μM, the emission intensity of TPEBe-I increases 20-fold. Moreover, the emission color also changes from dark into bright red under 365 nm UV illumination (FIG. 53b). […] Obviously, the value of (I−I0)/I0 has a linear relationship with ATP from 0 to 20 μM.
The fluorescence response of TPEBe-I was carried out using ATP, ADP and AMP. […] Accordingly, one embodiment relates to the use of TPEBe-I as a highly sensitive and selective fluorescent sensor for ATP.

[12] = tested on: mitochondria of HeLa cells; assay: Living HeLa cell staining and co-staining with MitoTracker Red; assay type: cell-based; details: 15 min
Protocol: In a further embodiment, the present subject matter is directed to the use of the TPEPy-PF6 luminogen as a fluorescent stain for living cell imaging. Nanoaggregates of TPEPy-PF6 were prepared in minimum essential medium/DMSO mixtures and the HeLa cells were imaged using a standard cell-staining protocol. The living cells were incubated with TPEPy-PF6 (5 μM) for 15 min and then washed three times with phosphate buffered saline solution.
Living cells were incubated with both mitochondria-targeted dye MitoTracker Red (100 nM) and TPEPy-PF6 (5 μM) for 15 min at 37° C. by the above procedure. […] Therefore, one embodiment of the present subject matter relates to the use of the TPEPy-PF6 luminogen to exclusively stain the mitochondria of living cells.

[13] = excised immediately after in vivo imaging

## CC(=O)N[C@@H](CC(=O)O)C(=O)N[C@@H](CCC(=O)O)C(=O)N[C@H](C(=O)N[C@@H](CC(=O)O)C(=O)N[C@@H](Cc1cn(CCCC[n+]2ccc(/C=C/c3ccc(C(=C(c4ccccc4)c4ccccc4)c4ccccc4)cc3)cc2)nn1)C(N)=O)C(C)C [Ac-DEVD-PyTPE]
[1]
  viability: ~100%
[2]
  fold higher change in (I−I0)/I0 than the other four enzymes: ~36 fold
[3]; PIPES buffer pH 7.2, caspase-3 5 μg mL^−1, probe 10 μM
  fluorescence of the probe treated with caspase-3: strong fluorescence signals
[3]; caspase-3 vs pepsin, trypsin, papain, lysozyme, protein 20 μg mL^−1, λex 405 nm, λem 610 nm
  fold higher change in (I−I0)/I0 than the other four enzymes: about 43 fold
[4]; STS pretreatment, 5 min after intratumoral injection of probe
  fluorescence enhancement of apoptotic tumoral tissues relative to normal tissues: 3 fold
[4]; [13]
  fluorescence of excised tumor/(+)STS tissues: high fluorescence signal
  fluorescence of excised tumor/(−)STS tissues: almost no fluorescence
[5]; 5 μM, 1% DMSO, 2 h
  probe fluorescence in normal un-induced cells: extremely low fluorescence signal
[5]; probe 5 μM, STS 3 μM
  probe fluorescence in STS-induced apoptotic cells: strong fluorescence signals

## COC[C@@H]1CCCN1S(=O)(=O)c1ccc2c(c1)C(=O)C(=O)N2 [MPS, 5-[(S)-(+)-2-(methoxymethyl)pyrrolidino]sulfonylisatin, reference compound]
[3]; pre-treatment with inhibitor 10 μM, PIPES buffer
  inhibition of caspase-3 cleavage of Ac-DEVD-PyTPE (fluorescence): Most of the fluorescence was readily competed away
[5]; inhibitor 10 μM before incubation with Ac-DEVD-PyTPE
  probe fluorescence in STS-induced cells pre-treated with inhibitor: greatly reduced

## ClCc1ccc(C2=c3cc4c5c(c3Oc3c2cc2c6c3CCCN6CCC2)CCC[N+]=5CCC4)cc1.[Cl-] [MitoTracker Red, reference compound]
[6]
  luminescence intensity remaining relative to initial value: about 20%

## CN[C@@H]1C[C@H]2O[C@@](C)([C@@H]1OC)n1c3ccccc3c3c4c(c5c6ccccc6n2c5c31)C(=O)NC4 [STS, staurosporine]
[7]
  apoptosis-inducing capability (cell fluorescence increase): strongest fluorescence enhancement
[8]
  efficacy of apoptosis inducing agent (tumor fluorescence): strongest fluorescence

## CC[n+]1c(/C=C/c2ccc(C(=C(c3ccccc3)c3ccccc3)c3ccccc3)cc2)sc2ccccc21 [TPEBe-ClO4]
[9]
  solubility in common organic solvents: soluble
  solubility in water: insoluble
[10]; Hg^2+ 0-2.0 mM, pH 7.4 HEPES, 1% DMSO
  emission intensity upon addition of Hg^2+: also increased

## CC[n+]1c(/C=C/c2ccc(C(=C(c3ccccc3)c3ccccc3)c3ccccc3)cc2)sc2ccccc21 [TPEBe-I]
[9]
  solubility in common organic solvents: soluble
  solubility in water: insoluble
[10]; Hg^2+ 2.0 mM, luminogen 20 μM, pH 7.4 HEPES, 1% DMSO, λex 480 nm
  emission intensity enhancement: 80 fold
[10]; Zn, Ni, Co, Cd, Cu, Mn, Ca, Fe, Mg, Ag, Pd ions 2.0 mM
  emission change with other metal ions: negligible changes
[10]; solid-state film, aqueous Hg^2+ 5 μL
  detection amount of Hg^2+: 1 µM
[11]; ATP 600 μM, luminogen 20 μM, λex 480 nm
  emission intensity increase: 20 fold
[11]; other nucleotides, aqueous solution with 1% DMSO
  emission change with ADP and AMP: negligible changes

## CC[n+]1c(/C=C/c2ccc(C(=C(c3ccccc3)c3ccccc3)c3ccccc3)cc2)sc2ccccc21 [TPEBe-PF6]
[9]
  solubility in common organic solvents: soluble
  solubility in water: insoluble; also recorded: not soluble

## C[n+]1ccc(/C=C/c2ccc(C(=C(c3ccccc3)c3ccccc3)c3ccccc3)cc2)cc1 [TPEPy-PF6]
[9]
  solubility in water: not soluble
[12]; 5 μM with MitoTracker Red 100 nM, 37° C.
  mitochondria staining: position, shape and amounts compared with MitoTracker Red: the same as for MitoTracker Red
[12]; 5 μM
  toxicity to living cells (cell morphology): low toxicity
[6]
  luminescence intensity remaining relative to initial value: ~70%
